Assay results taken from patent US20250235427A1, “5-METHOXY-N,N-[…][…] THE TREATMENT OF SOCIAL/EMOTIONAL […] DETACHMENT” (GH RESEARCH IRELAND LIMITED, priority 2022, published 2025).

Experiment: Pharmacokinetics after inhalation of 5-MeO-DMT, LC-MS/MS
Assay type: in vivo, human
Details: for plasma concentration as % of Cmax: whole dose range 6, 12, 18 mg

COc1ccc2[nH]cc(CCN(C)C)c2c1 [5-MeO-DMT]
plasma concentration as % of Cmax (10 minutes after inhalation): ≤ 10% | plasma concentration as % of Cmax (2 hours after inhalation): ≤ 1% | accumulation upon repeated administration (repeated administration within a time frame of 1 to 4 hours): No accumulation is observed
